In one series the test system is wild-type HIV-1 NL4-3. Description: HIV-1 replication in U87MG cells (p24 ELISA). Format: cell-based. The conditions noted are these: for inhibition at 3 µM: Human immunodeficiency virus 1, NL43, U-87 MG, 96 h, read-out: REPLICATION @ 3 μM % Inhibition vs. DMSO control; for REPLICATION @ 3 μM % Inhibition vs. DMSO control: U87MG cells. From the text:
In particular disclosed embodiments, the compound may be used to block Nef-dependent HIV replication and infectivity. FIG. 7 illustrates the chemical structures of the compounds identified by the Nef:Hck HTS campaign and subsequently shown to block Nef-dependent enhancement of HIV-1 replication in two different cell lines are shown, along with the IC50 values for each compound against Hck alone vs. the Nef:Hck complex. FIG. 8 illustrates results concerning HIV replication. […] Viral output for the DMSO-treated control cultures was consistently greater than 100-fold over the HIV input, typically ranging from 9,000-12,000 p24 equivalents/ml. Virus replication was assessed by p24 ELISA after 4 days (U87MG) or 9 days (CEM-T4). Data are expressed as the mean percent inhibition as compared to control cultures incubated with the carrier solvent (DMSO)±S.E.M. (n=4). Results of replication and cytotoxicity experiments with all certain hit compounds from the primary screen are shown in FIG. 3 and FIG. 4. FIG. 9 concerns infectivity assays. Compounds (3 μM) were added to cultures of the reporter cell line TZM-b1 followed by infection with either wild-type or Nef-defective (ΔNef) HIV NL4-3 in 96-well plates. After 48 hours, relative virus infectivity was assessed as luciferase production in infected cells. Results are plotted as the mean percent of HIV-1 infectivity observed in control cells incubated with the carrier solvent DMSO±S.E.M. (n=3). In the absence of Nef, infectivity is reduced by about 50% (ΔNef; dashed line shown for reference).
(§1) HIV assays: Viral stocks were prepared by transfection of 293T cells (ATCC) with wild-type and Nef-defective (ΔNef) proviral genomes (NL4—3 strain) and amplified in the T-cell line, MT2 (NIH AIDS Research and Reference Reagent Program). Viral replication was assessed in the U87MG astroglioma cell line engineered to express the HIV-1 co-receptors CD4 and CXCR4 or in the T-lymphoblast cell line, CEM-T4. Both the U87 MG and CEM-T4 cell lines support HIV-1 replication in a Nef-dependent manner, and were obtained from the NM AIDS Research and Reference Reagent Program. Compounds were solubilized in DMSO, and added to the cell culture medium 1 h prior to infection with HIV. Viral replication was monitored for either 4 days (U87MG) or 9 days (CEM-T4) by measuring p24 Gag protein levels in the culture supernatant using standard ELISA-based techniques. HIV-1 infectivity was measured using the reporter cell line, TZM-b1 (NM AIDS Research and Reference Reagent Program). Cells were grown in 96-well plates (2.5×10^4) 8 h prior to virus infection to permit adherence. Compounds were pre-incubated with wild-type HIV-1 for 4 h prior to addition to the cells in a final volume of 200 μl. After 48 h at 37° C., the cells were washed with PBS and lysed in luciferase lysis buffer (Promega) by rocking for 15 min Lysates (40 μl) were transferred to white 96-well plates and 50 μl luciferase reagent (Promega) was injected into each well. Readings were recorded with a delay time of 2 sec and an integration period of 10 sec.
Background: ELISA stands for enzyme-linked immunosorbent assay.

In another series the test system is HIV-1 NL4-3. In words: HIV-1 infectivity in TZM-b1 reporter cells (luciferase). Format: cell-based. The conditions noted are these: for inhibition at 3 µM: Human immunodeficiency virus 1, NL43, TZM-b1, 48 h, read-out: INFECTIVITY @ 3 μM % Inhibition vs. DMSO control; for INFECTIVITY @ 3 μM % Inhibition vs. DMSO control: TZM-b1 reporter cells. The protocol:
Compounds (1 μM) shown in FIG. 7 were added to cultures of U87MG and CEM-T4 cells in 96-well plates, followed by infection with wild-type HIV-1 NL4-3 (50 pg p24 equivalents/ml) 1 hour later. […] Virus replication was assessed by p24 ELISA after 4 days (U87MG) or 9 days (CEM-T4). Data are expressed as the mean percent inhibition as compared to control cultures incubated with the carrier solvent (DMSO)±S.E.M. (n=4). […] FIG. 9 concerns infectivity assays. Compounds (3 μM) were added to cultures of the reporter cell line TZM-b1 followed by infection with either wild-type or Nef-defective (ΔNef) HIV NL4-3 in 96-well plates. After 48 hours, relative virus infectivity was assessed as luciferase production in infected cells. […]
as §1, with “Both the U87 MG and CEM-T4 cell lines support HIV-1 replication in a Nef-dependent manner, and were obtained from the NM AIDS Research and Reference Reagent Program.” left out

The nature of series [1]: Preliminary pharmacokinetics in C3H mice. The conditions noted are these: for T1/2: i.v., 2 mg/kg; for % F (oral bioavailability): p.o., 10 mg/kg.
Procedure: Compounds were administered to male C3H mice via the i.v. and p.o. routes, and plasma concentrations were assessed by LC-MS/MS at the time points indicated. Plasma levels were determined for three mice at each time point and are shown as the mean±S.D.
Another series relates to cell-surface MHC-I. In words: Nef-induced MHC-I downregulation in CEM-GFP cells (flow cytometry). Format: cell-based. The conditions noted are these: CEM-GFP cells infected with HIV-1 WT NL43, 8 days. The method, then:
(§2) CEM-GFP cells were treated for 4 hrs with compounds or DMSO (control), then infected with 100 pg/ml HIV-1 WT NL43 or 500 pg/ml ΔNef-NL43.
(In general: A flow cytometer gives signals particle by particle.)

The next series concerns cell-surface CD4. Description: Nef-induced CD4 downregulation in CEM-GFP cells (flow cytometry). Format: cell-based. The conditions noted are these: CEM-GFP cells infected with HIV-1 WT NL43, 8 days. The protocol: as §2
Percentages on the flow diagrams (FIGS. 33A-33E) show percent of cells positive for CD4.

The structures appear in SMILES notation.

The inhibition is the percentage by which the read-out fell short of the control. Consider `COc1ccc(-c2n[nH]c(O)c2CCc2cccc(Cl)c2)cc1` [JV-1-59-1], for which the inhibition at 3 µM was determined as 30.1% in the series on wild-type HIV-1 NL4-3 and 0% in the series with HIV-1 NL4-3.
Turning to `N=C(N)n1nc(-c2ccc([N+](=O)[O-])cc2)c(CCc2cccc(Cl)c2)c1O` [JV-1-62-2-1], the results for the inhibition at 3 µM in the series on wild-type HIV-1 NL4-3 and with HIV-1 NL4-3 were 53.2% and 0%, respectively.
As for `COc1ccc(-c2nn(C(=N)N)c(O)c2CCc2ccc(F)cc2)cc1` [JV-1-74-1], the inhibition at 3 µM with wild-type HIV-1 NL4-3 is 27.8%; in the series with HIV-1 NL4-3 it was 0%.
Regarding `COc1ccc(-c2nn(C3=NCCN3)c(O)c2CCc2ccc(F)cc2)cc1` [JV-1-74-2], the results for the inhibition at 3 µM in the series on wild-type HIV-1 NL4-3 and in the series on HIV-1 NL4-3 were 46.8% and 36.7%, respectively.
`COc1ccc(-c2nn(-c3ccccc3)c(O)c2CCc2ccc(F)cc2)cc1` [JV-1-79]: the “REPLICATION @ 3 μM % Inhibition vs. DMSO control” value in the series with wild-type HIV-1 NL4-3 is recorded as “Toxic”. Moreover, the “INFECTIVITY @ 3 μM % Inhibition vs. DMSO control” value with HIV-1 NL4-3 is given as “Toxic”.
For `COc1ccc(-c2nn(-c3ccccn3)c(O)c2CCc2ccc(F)cc2)cc1` [JV-1-80], the “REPLICATION @ 3 μM % Inhibition vs. DMSO control” value in the series with wild-type HIV-1 NL4-3 was “Toxic”. The “INFECTIVITY @ 3 μM % Inhibition vs. DMSO control” value in the series with HIV-1 NL4-3 was “Toxic”.
For the compound `N=C(N)n1nc(C2CC2)c(CCc2ccc(F)cc2)c1O` [JV-1-89], the “REPLICATION @ 3 μM % Inhibition vs. DMSO control” value in the series on wild-type HIV-1 NL4-3 is 56.1%. Besides, the “INFECTIVITY @ 3 μM % Inhibition vs. DMSO control” value with HIV-1 NL4-3 turned out to be 28.0%.
Consider `N=C(N)n1nc(-c2ccoc2)c(CCc2ccc(F)cc2)c1O` [JV-1-96], for which the “REPLICATION @ 3 μM % Inhibition vs. DMSO control” value in the series on wild-type HIV-1 NL4-3 is reported as “Toxic”. For the same compound, in the series on HIV-1 NL4-3, the “INFECTIVITY @ 3 μM % Inhibition vs. DMSO control” value amounted to 11.0%.
In the case of `NC(=S)n1nc(-c2ccc([N+](=O)[O-])cc2)c(CCc2cccc(Cl)c2)c1O` [JZ-1-96-2-1], the “REPLICATION @ 3 μM % Inhibition vs. DMSO control” value with wild-type HIV-1 NL4-3 is “Toxic”. Besides, in the series on HIV-1 NL4-3, the inhibition at 3 µM was 59.5%. For the same compound, in series [1], the “T1/2” value amounted to 1.53 h and the “% F (oral bioavailability)” value amounted to 85%.
In the case of `NC(=S)n1nc(-c2ccc([N+](=O)[O-])cc2)c(Cc2cccc(Cl)c2)c1O` [JZ-1-97-2-1], the inhibition at 3 µM was found to be 51.6% in the series with wild-type HIV-1 NL4-3 and 56.6% with HIV-1 NL4-3. Besides, the “Reversal of Nef-mediated MHC-I downregulation” value with cell-surface MHC-I is given as “reverse Nef-mediated MHC-I downregulation to the same extent observed in cells infected with Nef-defective HIV-1”. In addition, in the series on cell-surface CD4, the “Reversal of Nef-mediated CD4 downregulation” value is reported as “reverse Nef-mediated CD4 downregulation to the same extent observed in cells infected with Nef-defective HIV-1”. Besides, in series [1], the “T1/2” value worked out at 1.66 h. For the same compound, the “% F (oral bioavailability)” value in series [1] is recorded as 57%.
As to `O=[N+]([O-])c1ccc(-c2n[nH]c(O)c2Cc2cccc(Cl)c2)cc1` [JZ-1-97-2-2], the inhibition at 3 µM was determined as 0% in the series on wild-type HIV-1 NL4-3 and 12.7% with HIV-1 NL4-3.
With `NC(=O)n1nc(-c2ccc(F)cc2)c(/N=N/c2cccnc2)c1O` [JZ-1-101], the inhibition at 3 µM in the series on wild-type HIV-1 NL4-3 and with HIV-1 NL4-3 was 0% in each case.
Regarding `NC(=O)n1nc(-c2ccc(F)cc2)c(/N=N/c2cncc(Cl)c2)c1O` [JZ-1-106], the inhibition at 3 µM turned out to be 0% in the series on wild-type HIV-1 NL4-3 and 3.5% in the series on HIV-1 NL4-3.
The corresponding values for `NC(=S)n1nc(-c2ccc(F)cc2)c(/N=N/c2cncc(Cl)c2)c1O` [JZ-1-107] are 0% and 19.7%.
As for `Oc1[nH]nc(-c2ccc(F)cc2)c1/N=N/c1cccnc1` [JZ-1-110-1], the inhibition at 3 µM in the series on wild-type HIV-1 NL4-3 was found to be 0%; in the series with HIV-1 NL4-3, 3.3%.
On to `Oc1[nH]nc(-c2ccc(F)cc2)c1/N=N/c1cncc(Cl)c1` [JZ-1-110-2], for which the inhibition at 3 µM with wild-type HIV-1 NL4-3 amounted to 19.3%; in the series on HIV-1 NL4-3 it was 0%.
For `COc1cccc(CCc2c(-c3ccc([N+](=O)[O-])cc3)nn(C(=N)N)c2O)c1` [JZ-1-135-1] the same measures were 54.1% and 9.5%.
Consider `N=C(N)n1nc(-c2ccccn2)c(CCc2cccc(Cl)c2)c1O` [JZ-1-135-2], for which the “REPLICATION @ 3 μM % Inhibition vs. DMSO control” value with wild-type HIV-1 NL4-3 is “Toxic”. Besides, the inhibition at 3 µM in the series with HIV-1 NL4-3 came to 0%.
Turning to `COc1ccc(-c2nn(C(=N)N3CCOCC3)c(O)c2CCc2ccc(F)cc2)cc1` [JZ-1-154-2-2], the inhibition at 3 µM with HIV-1 NL4-3 came out at 0%.
For the compound `O=[N+]([O-])c1ccc(-c2nn(C3=NCCN3)c(O)c2Cc2ccc(F)cc2)cc1` [JZ-1-171], the inhibition at 3 µM in the series with HIV-1 NL4-3 amounted to 0%.
Same read-out and setting: the value for `N=C(N)n1nc(-c2ccc(F)cc2)c(Cc2ccc(F)cc2)c1O` [JZ-1-175] was 0%; that for `Oc1c(Cc2ccc(F)cc2)c(-c2ccc(F)cc2)nn1C1=NCCN1` [JZ-1-176] was 7.7%; that for `N=C(N)n1nc(-c2ccc(C(F)(F)F)cc2)c(Cc2ccc(F)cc2)c1O` [JZ-1-177] was 0%.
On to `Oc1c(Cc2ccc(F)cc2)c(-c2ccc(F)cc2)nn1-c1ccccn1` [JZ-1-178], for which the inhibition at 3 µM in the series on wild-type HIV-1 NL4-3 is 0%; in the series with HIV-1 NL4-3, 34.7%.
As for `Oc1[nH]nc(-c2ccc(C(F)(F)F)cc2)c1Cc1ccc(F)cc1` [JZ-1-179-2], the inhibition at 3 µM in the series with HIV-1 NL4-3 came out at 0%.
With `N=C(N1CCOCC1)n1nc(-c2ccc(C(F)(F)F)cc2)c(Cc2ccc(F)cc2)c1O` [JZ-1-180], in the series with HIV-1 NL4-3, the inhibition at 3 µM amounted to 0%.
Take `NC(=S)n1nc(-c2ccc([N+](=O)[O-])cc2)c(/N=N/c2ccc(Cl)cc2)c1O` [KM-1-46]: the inhibition at 3 µM worked out at 43.6% in the series on wild-type HIV-1 NL4-3 and 37.2% in the series on HIV-1 NL4-3.
With `NC(=S)n1nc(-c2ccc([N+](=O)[O-])cc2)c(/N=N/c2ccccc2Cl)c1O` [KM-1-48], the inhibition at 3 µM in the series on HIV-1 NL4-3 worked out at 19.3%.
For the compound `C(=C\c1c[nH]nc1-c1ccccc1)/c1ccccc1` [Vit-3f], the inhibition at 3 µM in the series on HIV-1 NL4-3 was found to be 0%.

The record behind these values is patent publication US9695127B2, “Compounds for treating HIV and methods for using the compounds” (University of Pittsburgh—Of the Commonwealth System of …, priority 2012, dated 2017).
